The values that follow come from patent US4632926A, “Quinazolinone derivatives which are active against coccidiosis” (priority 1982, dated 1986).

Entries after “also recorded” stand apart in the source; their conditions may differ.

For data set [1], the system named is coccidia. Particulars: cited from earlier work.
The subject of data set [2] is chickens. Particulars: poultry; cited from earlier work.
The test system of data set [3] is poultry. As to conditions: background; cited from earlier work.
Data set [4] deals with chickens. As to the kind of experiment: Toxicity phenomena in chickens fed with the compound in poultry-feed. In kind it is in vivo.
The test system of data set [5] is Eimeria acervulina. The experiment in a line: Coccidiostatic activity in vivo against Eimeria acervulina (presence of oocysts in the excrements). On the set-up: species or system Eimeria acervulina (in Ranger pullets); key to E. acervulina (oocysts): A: absent; M: minimal present; P: present. How it is done:
(§1) Groups of 5 one-week-old Ranger pullets were infected each with a mixture of 5500 sporulated oocysts of Eimeria tenella and with 5000 sporulated oocysts of Eimeria acervulina.
(§2) The compound being tested was administered at the preselected dose in admixture with a poultry-feed (LD5) poor in vitamin K and containing no other additive.
(§3) The pullets were fed ad libitum with a fodder so prepared, beginning from 1 day prior to the infestation and going on for further 5 days.
(§4) As a check, there were used non-infested non-treated chickens and infested non-treated chickens.
(§5) The evaluation of the activity on Eimeria tenella was accomplished by ascertaining the presence of lesions, if any, 5 days after the infection, while the activity on Eimeria acervulina was evaluated by ascertaining the presence of oocysts, if if any, in the excrements 5 days after the infection.
(§6) The above compounds were tested for anticoccidial activity against E. tenella and E. acervulina according to the procedure hereabove described.
(§7) The activity against E. tenella was expressed as percent control of the infection at the considered dose, while the activity against E. acervulina was expressed on the basis of the presence, if any, of oocysts in the excrements and was rated as follows: […]

For data set [6], the system named is Eimeria tenella. As to the kind of experiment: Coccidiostatic activity in vivo against Eimeria tenella (lesions, % control of the infection). Further details: species or system Eimeria tenella (in Ranger pullets). On the procedure: as §1, §2, §3, §4, §5, §6, §7
The nature of data set [7]: Toxicity towards poultry, LD50. As to conditions: chicken, in vivo.

Take `O=C(CC1NCCCC1O)Cn1cnc2cc(Br)c(Cl)cc2c1=O` (stereo not shown) [Halofuginone]: in data set [1] (background, poultry, even at very low doses (practical dose 3 ppm in feed)), the anticoccidial activity result is “particularly active against coccidiosis in poultry; also recorded: high anticoccidial activity even at very low doses”. In addition, in data set [2], the LD50 is reported as 17.6 mg/Kg body weight. The toxicity for chickens result in data set [3] is recorded as “very toxic for chickens”. The “toxicity phenomena in chickens” value in data set [4] (about 38 ppm in the poultry-feed) was “show phenomena of toxicity”.

`NN=C(CC1NCCCC1O)Cn1cnc2cc(Br)c(Cl)cc2c1=O` (stereo not shown) [Compound No. 1, 6-chloro-7-bromo-3-[3-(3-hydroxy-2-piperidyl)-acetonyl]-(3H)-quinazolin-4-one hydrazone]: the “E. acervulina (oocysts)” value in data set [5] (3.125 ppm in feed) is listed as “M”; in data set [5] (6.25 ppm in feed), “A”; in data set [5] (12.5 ppm in feed), “A”; in data set [5] (25 ppm in feed), “A”. Besides, the “E. tenella (% control)” value in data set [6] (3.125 ppm in feed), in data set [6] (6.25 ppm in feed), in data set [6] (12.5 ppm in feed) and in data set [6] (25 ppm in feed) was 100 % control in each case.

Consider `O=C(C[C@H]1NCCC[C@@H]1O)Cn1cnc2cc(Br)c(Cl)cc2c1=O` (relative stereo) [trans-isomer], for which, in data set [1] (trans versus cis isomer in the piperidine ring, Barringer et al. 1973), the “activity of trans-isomer compared with cis isomer” value is on record as “higher activity than the corresponding cis isomer”.

Take `O=c1c2cc(Cl)c(Br)cc2ncn1CC(CC1NCCCC1O)=NO` (stereo not shown) [Compound A, reference compound]: the “E. acervulina (oocysts)” value in data set [5] (3.125 ppm in feed) is recorded as “P”; in data set [5] (6.25 ppm in feed) it was “P”; in data set [5] (12.5 ppm in feed), “P”; in data set [5] (25 ppm in feed), “M”. Also, the “E. tenella (% control)” value turned out to be 0 % control in data set [6] (3.125 ppm in feed), 0 % control in data set [6] (6.25 ppm in feed), 40 % control in data set [6] (12.5 ppm in feed) and 100 % control in data set [6] (25 ppm in feed).

On to `CCNN=C(CC1NCCCC1OC)Cn1cnc2cc(Br)c(Cl)cc2c1=O` (stereo not shown) [Compound No. 2, 6-chloro-7-bromo-3-[3-(3-methoxy-2-piperidyl)-acetonyl]-(3H)-quinazolin-4-one ethylhydrazone], for which, in data set [7], the LD50 was approximately 100 mg/kg. Moreover, the “toxicity phenomena in chickens” value in data set [4] (100 ppm in poultry-feed along the duration of the activity test) is on record as “No toxicity phenomena”. In addition, the figures for the “E. acervulina (oocysts)” value in data set [5] (6.25 ppm in feed), in data set [5] (12.5 ppm in feed) and in data set [5] (25 ppm in feed) were “P”, “A” and “A”, respectively. Further, the “activity against E. acervulina, result in words” value in data set [5] (dose of 6.25 ppm) was “complete activity”. Further, the “E. tenella (% control)” value in data set [6] (6.25 ppm in feed), in data set [6] (12.5 ppm in feed) and in data set [6] (25 ppm in feed) was 100 % control throughout. Besides, the “activity against E. tenella, result in words” value in data set [6] (dose of 12.5 ppm) was “full activity”.
